Biological target: JAK1 (Homo sapiens (Human), UniProt P23458)
Assay: Analysis of JAK1 activity inhibition ability (ADP-Glo Kinase Assay)
Type: biochemical
Conditions: JAK1 enzyme, ADP-Glo luminescence, ATP 250 uM, IRS-itide substrate, 30° C. 40 minutes; read-out: IC50
Method in brief: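 JAK1 enzyme, IRS-itide substrate (40 ng/mL) and 250 uM ATP, both as prepared in kinase buffer (Tris-HCl pH 7.5, MgCl2, BSA, DTT), reacted with compound 40 min at 30 °C. ADP formed was detected by ADP-Glo luminescence; IC50 is the concentration giving 50% inhibition versus control.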

Chain of JAK1 (P23458 whole entry): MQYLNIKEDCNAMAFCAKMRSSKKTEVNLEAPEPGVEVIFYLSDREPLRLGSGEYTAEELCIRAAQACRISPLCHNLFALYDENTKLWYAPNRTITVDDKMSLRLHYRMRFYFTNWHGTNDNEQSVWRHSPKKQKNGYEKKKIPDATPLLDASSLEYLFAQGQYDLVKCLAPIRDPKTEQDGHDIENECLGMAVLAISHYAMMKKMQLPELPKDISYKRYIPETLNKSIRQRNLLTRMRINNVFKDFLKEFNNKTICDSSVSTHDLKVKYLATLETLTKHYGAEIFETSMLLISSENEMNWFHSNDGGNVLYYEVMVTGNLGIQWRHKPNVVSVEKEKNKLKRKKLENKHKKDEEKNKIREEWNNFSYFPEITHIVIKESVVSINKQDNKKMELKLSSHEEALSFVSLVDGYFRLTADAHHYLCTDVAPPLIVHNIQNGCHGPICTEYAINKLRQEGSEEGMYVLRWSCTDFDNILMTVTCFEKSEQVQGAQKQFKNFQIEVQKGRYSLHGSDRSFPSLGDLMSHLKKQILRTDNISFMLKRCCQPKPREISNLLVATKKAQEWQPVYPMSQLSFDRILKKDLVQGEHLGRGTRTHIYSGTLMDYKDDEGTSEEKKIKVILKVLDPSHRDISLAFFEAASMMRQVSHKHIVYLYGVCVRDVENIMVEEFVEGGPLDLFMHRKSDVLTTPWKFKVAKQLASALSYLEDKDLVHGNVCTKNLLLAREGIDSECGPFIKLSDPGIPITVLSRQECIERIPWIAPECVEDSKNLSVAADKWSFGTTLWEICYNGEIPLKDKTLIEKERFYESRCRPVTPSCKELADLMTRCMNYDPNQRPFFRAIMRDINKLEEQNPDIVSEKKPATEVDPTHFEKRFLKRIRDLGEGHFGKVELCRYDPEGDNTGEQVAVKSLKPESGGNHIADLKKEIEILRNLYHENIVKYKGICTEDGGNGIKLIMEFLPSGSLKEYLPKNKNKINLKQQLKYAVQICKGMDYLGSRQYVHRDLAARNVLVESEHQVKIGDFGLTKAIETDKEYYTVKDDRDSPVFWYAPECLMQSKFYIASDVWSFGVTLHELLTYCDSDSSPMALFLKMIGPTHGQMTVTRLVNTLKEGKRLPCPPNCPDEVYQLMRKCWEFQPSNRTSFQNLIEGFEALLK

| IC50 [nM] | SMILES |
| --- | --- |
| < 20 | C[C@H]1C=C(c2cc(NC(=O)C3CC3)nc3[nH]ccc23)CCN1C(=O)CC#N [Example 390, (S)—N-(4-(1-(2-cyanoacetyl)-6-methyl-1,2,3,6-tetrahydropyridin-4-yl)-1H-pyrrolo[2,3-b]pyridin-6-yl)cyclopropanecarboxamide] |
| < 20 | N#CCC1(CS(=O)(=O)Nc2ccc(-c3cc(NC(=O)C4CC4)nc4[nH]ccc34)cc2F)CC1 [Example 86, N-(4-(4-(((1-(cyanomethyl)cyclopropyl)methyl)sulfonamido)-3-fluorophenyl)-1H-pyrrolo[2,3-b]pyridin-6-yl)cyclopropanecarboxamide] |
| > 200 | CCNC(=O)Nc1ccc(-c2nc(NC(=O)C3CC3)nc3[nH]ccc23)cc1 [Example 438, N-(4-(4-(3-ethylureido)phenyl)-7H-pyrrolo[2,3-d]pyrimidin-2-yl)cyclopropanecarboxamide] |
| > 200 | CC(C)(C)OC(=O)N1CCCC(NC(=O)Cc2ccc(-c3cc(NC(=O)C4CC4)nc4[nH]ccc34)cc2)C1 (centres unmarked) [Example 555, tert-butyl 3-(2-(4-(6-(cyclopropanecarboxamido)-1H-pyrrolo[2,3-b]pyridin-4-yl)phenyl)acetamido)piperidine-1-carboxylate] |
| < 20 | N#CCCCS(=O)(=O)N1CC(CC#N)(N2CC=C(c3cc(NC(=O)C4CC4)nc4[nH]ccc34)CC2)C1 [Example 618, N-(4-(1-(3-(cyanomethyl)-1-((3-cyanopropyl)sulfonyl)azetidin-3-yl)-1,2,3,6-tetrahydropyridin-4-yl)-1H-pyrrolo[2,3-b]pyridin-6-yl)cyclopropanecarboxamide] |
| 20 to 200 | CC(Br)CC(=O)N1CC=C(c2cc(NC(=O)C3CC3)nc3[nH]ccc23)C(C)C1 (centres unmarked) [Example 338, N-(4-(1-(3-bromobutanoyl)-3-methyl-1,2,3,6-tetrahydropyridin-4-yl)-1H-pyrrolo[2,3-b]pyridin-6-yl)cyclopropanecarboxamide] |
| > 200 | O=C(Nc1cc(C2=CCN(C(=O)N3CCOCC3)CC2)c2cc[nH]c2n1)C1CC1 [Example 446, N-(4-(1-(morpholine-4-carbonyl)-1,2,3,6-tetrahydropyridin-4-yl)-1H-pyrrolo[2,3-b]pyridin-6-yl)cyclopropanecarboxamide] |
| 20 to 200 | CCCC1C=C(c2cc(NC(=O)C3CC3)nc3[nH]ccc23)CCN1C(=O)CC#N (centres unmarked) [Example 411, N-(4-(1-(2-cyanoacetyl)-6-propyl-1,2,3,6-tetrahydropyridin-4-yl)-1H-pyrrolo[2,3-b]pyridin-6-yl)cyclopropanecarboxamide] |
| < 20 | N#CC1(CS(=O)(=O)Nc2cc(F)c(-c3cc(NC(=O)C4CC4)nc4[nH]ccc34)cc2F)CC1 [Example 105, N-(4-(4-(((1-cyanocyclopropyl)methyl)sulfonamido)-2,5-difluorophenyl)-1H-pyrrolo[2,3-b]pyridin-6-yl)cyclopropanecarboxamide] |
| > 200 | N#CC1(CS(=O)(=O)N2CCN(c3cc(NC(=O)C4CC4)nc4[nH]ccc34)CC2)CC1 [Example 662, N-(4-(4-(((1-cyanocyclopropyl)methyl)sulfonyl)piperazin-1-yl)-1H-pyrrolo[2,3-b]pyridin-6-yl)cyclopropanecarboxamide] |
| < 20 | O=C(Nc1cc(-c2ccc(CN3CCS(=O)(=O)CC3)cc2)c2cc[nH]c2n1)C1CC1 [Example 584, N-(4-(4-((1,1-dioxidothiomorpholino)methyl)phenyl)-1H-pyrrolo[2,3-b]pyridin-6-yl)cyclopropanecarboxamide] |
| > 200 | CC1CN(C(=O)c2ccc(-c3ccc(F)cc3)[nH]c2=O)CC=C1c1cc(NC(=O)C2CC2)nc2[nH]ccc12 (centres unmarked) [Example 322, N-(4-(1-(6-(4-fluorophenyl)-2-oxo-1,2-dihydropyridine-3-carbonyl)-3-methyl-1,2,3,6-tetrahydropyridin-4-yl)-1H-pyrrolo[2,3-b]pyridin-6-yl)cyclopropanecarboxamide] |
| < 20 | N#CCC1(CS(=O)(=O)Nc2c(F)cc(-c3cc(NC(=O)C4CC4)nc4[nH]ccc34)cc2F)CC1 [Example 108, N-(4-(4-(((1-(cyanomethyl)cyclopropyl)methyl)sulfonamido)-3,5-difluorophenyl)-1H-pyrrolo[2,3-b]pyridin-6-yl)cyclopropanecarboxamide] |
| 20 to 200 | CC1CN(C(=O)c2ccc([N+](=O)[O-])cc2)CC=C1c1cc(NC(=O)C2CC2)nc2[nH]ccc12 (centres unmarked) [Example 331, N-(4-(3-methyl-1-(4-nitrobenzoyl)-1,2,3,6-tetrahydropyridin-4-yl)-1H-pyrrolo[2,3-b]pyridin-6-yl)cyclopropanecarboxamide] |

The next lines start with the compound.

| SMILES | IC50 [nM] |
| --- | --- |
| CCCS(=O)(=O)Nc1ccc(-c2cc(NC(=O)C3CC3)nc3[nH]ccc23)c(C)c1 [Example 95, N-(4-(2-methyl-4-(propylsulfonamido)phenyl)-1H-pyrrolo[2,3-b]pyridin-6-yl)cyclopropanecarboxamide] | 20 to 200 |
| CC1CN(C(=O)c2cncc(Br)c2)CC=C1c1cc(NC(=O)C2CC2)nc2[nH]ccc12 (centres unmarked) [Example 324, N-(4-(1-(5-bromonicotinoyl)-3-methyl-1,2,3,6-tetrahydropyridin-4-yl)-1H-pyrrolo[2,3-b]pyridin-6-yl)cyclopropanecarboxamide] | 20 to 200 |
| N#CCCCS(=O)(=O)Nc1ccc(-c2cc(NC(=O)C3CC3)nc3[nH]ccc23)cc1F [Example 77, N-(4-(4-((3-cyanopropyl)sulfonamido)-3-fluorophenyl)-1H-pyrrolo[2,3-b]pyridin-6-yl)cyclopropanecarboxamide] | < 20 |
| C[C@@H]1C=C(c2cc(NC(=O)C3CC3)nc3[nH]ccc23)CCN1C(=O)CC#N [Example 388, (R)—N-(4-(1-(2-cyanoacetyl)-6-methyl-1,2,3,6-tetrahydropyridin-4-yl)-1H-pyrrolo[2,3-b]pyridin-6-yl)cyclopropanecarboxamide] | < 20 |
| O=C(Nc1cc(-c2ccc(NS(=O)(=O)c3ccc(Cl)c(C(F)(F)F)c3)cc2)c2cc[nH]c2n1)C1CC1 [Example 33, N-(4-(4-((4-chloro-3-(trifluoromethyl)phenyl)sulfonamido)phenyl)-1H-pyrrolo[2,3-b]pyridin-6-yl)cyclopropanecarboxamide] | 20 to 200 |
| O=C(Nc1cc(C2=CC3CCC(C2)N3S(=O)(=O)C2CC2)c2cc[nH]c2n1)C1CC1 (centres unmarked) [Example 177, N-(4-(8-(cyclopropylsulfonyl)-8-azabicyclo[3.2.1]oct-2-en-3-yl)-1H-pyrrolo[2,3-b]pyridin-6-yl)cyclopropanecarboxamide] | 20 to 200 |
| O=C(Nc1cc(-c2ccc(NS(=O)(=O)c3ccccc3)cc2)c2cc[nH]c2n1)C1CC1 [Example 24, N-(4-(4-(phenylsulfonamido)phenyl)-1H-pyrrolo[2,3-b]pyridin-6-yl)cyclopropanecarboxamide] | < 20 |
| CCS(=O)(=O)Nc1ccc(-c2cc(NC(=O)C3CC3)nc3[nH]ccc23)cc1C [Example 64, N-(4-(4-(ethylsulfonamido)-3-methylphenyl)-1H-pyrrolo[2,3-b]pyridin-6-yl)cyclopropanecarboxamide] | < 20 |
| O=C(Nc1cc(C2=CC3CCC(C2)N3S(=O)(=O)CCCF)c2cc[nH]c2n1)C1CC1 (centres unmarked) [Example 175, N-(4-(8-((3-fluoropropyl)sulfonyl)-8-azabicyclo[3.2.1]oct-2-en-3-yl)-1H-pyrrolo[2,3-b]pyridin-6-yl)cyclopropanecarboxamide] | 20 to 200 |
| N#CC1CC(N2CC=C(c3cc(NC(=O)C4CC4)nc4[nH]ccc34)CC2)C1 (centres unmarked) [Example 490, N-(4-(1-(3-cyanocyclobutyl)-1,2,3,6-tetrahydropyridin-4-yl)-1H-pyrrolo[2,3-b]pyridin-6-yl)cyclopropanecarboxamide] | 20 to 200 |
| O=C(Nc1cc(C2=CCC(NS(=O)(=O)N3CCOCC3)CC2)c2cc[nH]c2n1)C1CC1 (centres unmarked) [Example 231, N-(4-(4-(morpholine-4-sulfonamido)cyclohex-1-en-1-yl)-1H-pyrrolo[2,3-b]pyridin-6-yl)cyclopropanecarboxamide] | < 20 |
| CCS(=O)(=O)Nc1ccc(-c2cc(NC(=O)C3CC3)nc3[nH]ccc23)c(C#N)c1 [Example 144, N-(4-(2-cyano-4-(ethylsulfonamido)phenyl)-1H-pyrrolo[2,3-b]pyridin-6-yl)cyclopropanecarboxamide] | 20 to 200 |
| O=C(Nc1nc(-c2ccc(NS(=O)(=O)CCCF)c(F)c2)c2cc[nH]c2n1)C1CC1 [Example 203, N-(4-(3-fluoro-4-((3-fluoropropyl)sulfonamido)phenyl)-7H-pyrrolo[2,3-d]pyrimidin-2-yl)cyclopropanecarboxamide] | < 20 |
| O=C(Nc1cc(-c2cc(F)c(CN3CCOCC3)c(F)c2)c2cc[nH]c2n1)C1CC1 [Example 590, N-(4-(3,5-difluoro-4-(morpholinomethyl)phenyl)-1H-pyrrolo[2,3-b]pyridin-6-yl)cyclopropanecarboxamide] | < 20 |
| O=C(Nc1cc(-c2ccc(OS(=O)(=O)CC3CCCCC3)cc2)c2cc[nH]c2n1)C1CC1 [Example 637, 4-(6-(cyclopropanecarboxamido)-1H-pyrrolo[2,3-b]pyridin-4-yl)phenyl cyclohexylmethanesulfonate] | > 200 |
| O=C(Nc1cc(-c2ccc(CC(=O)N3CCN(S(=O)(=O)NCC(F)(F)F)CC3)cc2)c2cc[nH]c2n1)C1CC1 [Example 566, (N-(4-(4-(2-oxo-2-(4-(N-(2,2,2-trifluoroethyl)sulfamoyl)piperazin-1-yl)ethyl)phenyl)-1H-pyrrolo[2,3-b]pyridin-6-yl)cyclopropanecarboxamide)] | > 200 |
| O=C(Nc1cc(-c2cnn(Cc3ccccc3)c2)c2cc[nH]c2n1)C1CC1 [Example 479, N-(4-(1-benzyl-1H-pyrazol-4-yl)-1H-pyrrolo[2,3-b]pyridin-6-yl)cyclopropanecarboxamide] | 20 to 200 |
| O=C(Nc1cc(-c2ccc(NS(=O)(=O)C3CCCCC3)cc2)c2cc[nH]c2n1)C1CC1 [Example 7, N-(4-(4-(cyclohexanesulfonamido)phenyl)-1H-pyrrolo[2,3-b]pyridin-6-yl)cyclopropanecarboxamide] | < 20 |

Reference: patent US11524968B2, “Heterocyclic compound as a protein kinase inhibitor” (HK inno.N Corporation, priority 2017, dated 2022)
